Article PMC7023239, “Evaluation of the Biodistribution of Serinolamide-Derivatized C60 Fullerene” (Nanomaterials, 2020)

Legend:
[1] = PET/CT biodistribution in mice; assay type: in vivo, male nude mice
Experimental: PET and CT scans were performed using a small animal Albira PET/SPECT/CT scanner (Bruker Corporation, Billerica, MA, USA). PET images were analyzed using PMOD Version 3.505 (PMOD Technologies Ltd., Zürich, Switzerland). PET/CT maximum intensity projections were constructed using Inveon Research Workplace (Siemens Medical Solutions USA, Inc., Malvern, PA, USA). Statistical analysis was performed on GraphPad Prism 8 (GraphPad Software, San Diego, CA, USA).
PET Image Acquisition: All mice were manipulated in accordance to the MD Anderson Cancer Center’s IACUC guidelines. Mice were anesthetized with 2% isoflurane using oxygen as a carrier. For both C60-[^64Cu]Cu(NOTA) and [^64Cu]Cu(NOTA), 6 male nude mice were injected on the bed with ~200 μCi of activity in 150 μL of saline through a tail vein catheter. At the start of injection, a 20-min dynamic PET scan was acquired using the Albira PET/SPECT/CT scanner with a 15 cm field of view (FOV). The actual injected dose was calculated by measuring the pre- and post-injection activity in the syringe using a CRC-15R dose calibrator (Capintec, Inc., Florham Park, NJ, USA). The data were binned into 20-s time frames for the first 5 min, 60-s frames for the next 5 min, and 5-min frames for the next 10 min. Static PET images were then recorded at 3 h and 24 h post-injection (p.i.) for 10 min. A static PET image at 48 h p.i. was recorded for 20 min for C60-[^64Cu]Cu(NOTA) only. Following all PET scans, two 3 min CT scans were performed to cover the whole mouse body with a total FOV of 12.6 cm (400 μA, 45 kV, 250 projections).
The PET images were reconstructed using the Maximum Likelihood Expectation Maximization method with 12 iterations. The CT images were reconstructed using the Filtered Back Projection method. Scatter, randoms, decay, and attenuation corrections were applied through the Albira software. Volumes-of-interest (VOIs) were drawn for the major organs on the decay-corrected PET images using PMOD, and injected doses were used to calculate percent of injected dose per cubic centimeter of tissue (%ID/cc). […]

[2] = Two-phase decay model of heart TAC (blood pharmacokinetics); assay type: in vivo, male nude mice; conditions: mice, tail vein
Text: The PET images were reconstructed using the Maximum Likelihood Expectation Maximization method with 12 iterations. The CT images were reconstructed using the Filtered Back Projection method. Scatter, randoms, decay, and attenuation corrections were applied through the Albira software. Volumes-of-interest (VOIs) were drawn for the major organs on the decay-corrected PET images using PMOD, and injected doses were used to calculate percent of injected dose per cubic centimeter of tissue (%ID/cc). Errors in the averaged %ID/cc were reported as standard error of the mean (SEM). A non-linear regression analysis of the dynamic PET data for both C60-[^64Cu]Cu(NOTA) and [^64Cu]Cu(NOTA) was performed and fitted to a two-phase decay model to determine the blood half-life of each compound.
We also performed a non-linear regression analysis of the heart TAC data of both compounds using a two-phase decay model, which produced a p value of < 0.0001 by an extra sum-of-squares F test. The two-phase decay model consists of a distribution phase and an elimination phase. The fast distribution phase describes the rapid circulation of the material from the plasma to highly-perfused tissues, and the slow elimination phase describes the clearance of the material from the plasma and tissues through excretion. From this analysis, a blood half-life (t1/2) and rate constants (α, β) for each phase were determined along with the clearance rate (CL) and the area under the curve (AUC), which represents a normalized volume of distribution (Table 1).

period in which most of the material was cleared by renal excretion ([1]; PET): between 20 min and 3 h p.i.
uptake / detected signal at 48 h p.i. ([1]; PET static scan, 48 h p.i., any organ): negligible
uptake in the kidneys compared to other major organs ([1]; PET, 20 min p.i.): significant uptake
Area under Curve (AUC) [2]: 3.173 × 10^2 %ID·min/cc
Distribution Half-Life [2]: 0.4975 min
Distribution Rate Constant (α) [2]: 1.393 min⁻¹
Elimination Half-Life [2]: 8.153 min
Elimination Rate Constant (β) [2]: 0.08501 min⁻¹
Structure (SMILES): O=C([O-])CN1CCN(CC(=O)[O-])CCN(CC(=O)O)CC1.[64Cu+2] [[^64Cu]Cu(NOTA)]
